From patent US4840969A, “N-substituted benzamides” (Bayer Aktiengesellschaft, priority 1986, dated 1989)

How the values were obtained:
LD50 on rats (oral) = settings: rat, in vivo, stomach tube, in polyethylene glycol Lutrol, read-out: LD50 (mg of active compound/kg of body weight)
Procedure: LD50 values on rats (oral)
The values were determined in the customary manner.

Meloidogyne incognita = experiment: Critical concentration test/nematodes, Meloidogyne incognita (lettuce in infested soil); assay type: in vivo; settings: active compound concentration of 1.25 ppm-10 ppm in soil; lettuce root galls after four weeks; 27° C.
Procedure: Critical concentration test/nematodes
Test nematode: Meloidogyne incognita
(§1) Solvent: 3 parts by weight of acetone
(§2) Emulsifier: 1 part by weight of alkylaryl polyglycol ether
The treated soil is filled into pots, lettuce is sown and the pots are kept at a greenhouse temperature of 27° C.

[1] = known from U.S. Pat. No. 2,978,479 and Pesticide Manual; cited from earlier work
Globodera rostochiensis = experiment: Critical concentration test, Globodera rostochiensis (potatoes in infested soil); assay type: in vivo; settings: active compound concentrations of 2.5, 5 and 10 ppm in soil; potato root cysts after six weeks; 18° C.
Procedure: Critical concentration test
Test nematode: Globodera rostochiensis
as §1, §2
The treated soil is filled into pots, potatoes are planted and the pots are kept at a greenhouse temperature of 18° C.

CCOP(=O)(NC(C)C)Oc1ccc(SC)c(C)c1 (stereo not drawn) [fenamiphos, O-ethyl-O-(3-methyl-4-methylthio-phenyl)-N-isopropyl-phosphoric acid ester-amide, reference compound]
LD50 (LD50 on rats (oral)): 10 to 20 mg/kg | degree of effectiveness (Meloidogyne incognita): 95% | insecticidal and nematicidal properties [1]: very good

CN(CC(F)(F)F)C(=O)c1c(F)cccc1F [Example 6]
degree of effectiveness (Meloidogyne incognita): 95%

O=C(NC1(C(F)(F)F)CC1)c1c(F)cccc1F [Example 33]
degree of effectiveness (Globodera rostochiensis): 95% | degree of effectiveness (Meloidogyne incognita): 95%

CC(NC(=O)c1c(F)cccc1F)C(F)(F)F (stereo not drawn) [drawing 61]
LD50 (LD50 on rats (oral)): > 1000 mg/kg

CC(NC(=O)c1ccccc1Cl)C(F)(F)F (stereo not drawn) [Example 29]
degree of effectiveness (Globodera rostochiensis): 95% | degree of effectiveness (Meloidogyne incognita): 95%

O=C(NCC(F)(F)F)c1c(F)cccc1F [Example 5]
degree of effectiveness (Globodera rostochiensis): 95%

CC(NC(=O)c1c(F)cccc1F)C(F)(F)F (stereo not drawn) [Example 1, 2,6-difluorobenzoic acid N-(1,1,1-trifluoro-prop-2-yl)-amide]
degree of effectiveness (Globodera rostochiensis): 95% | degree of effectiveness (Meloidogyne incognita): 95%
